Test results from patent US9814732B2, “Ulipristal acetate for prevention and treatment of breast tumors” (LABORATOIRE HRA-PHARMA, priority 2012, dated 2017).

How the values were obtained:
[1] = tested on: PR target genes (FASN, cyclin A, BCL2, ALPL); assay: qRT-PCR mRNA expression of PR target genes in HBE cells; format: cell-based, human
Experimental: (§1) After seeding, cells were cultured for 24 h in serum and phenol red free medium. Then treatments were carried out in a phenol red free medium containing 5% dextran-charcoal stripped serum. Cells were treated with P or DEX (100 nM), alone or in combination with UPA, RU (1 nM to 1 μM) or CDB-3877 (100 nM). Control cells were treated with ethanol, at […] 1:1000 final ethanol concentration alone as vehicle or E2 (10 nM).
(§2) Total RNA was extracted using TriZOL Reagent (Invitrogen, Cergy-Pontoise, France).
(§3) 2 μg of total RNA was subjected to reverse transcription (RT) using random primers for 1 h at 37° C. 2 μl of RT product was diluted (1:10) and subjected to quantitative PCR using sequence specific primers (300 nM) and Brillant SYBR GREEN QPCR master mix (Fermentas, Saint-Rémy-lès-Chevreuse, France) on an Mx3000P apparatus (Agilent Technologies, Massy, France). Conditions were 1 cycle at 95° C. for 10 min followed by 40 cycles at 95° C. for 30 sec, 60° C. for 1 min and 72° C. for 30 sec. Gene expression values were normalized to the housekeeping gene 36B4. Time of steroid treatment was chosen to get the optimal stimulation for a given gene. ALPL and G0S8 mRNA were analyzed after 6 h of treatment. IEX-1, FASN, and BCL2 were analyzed after 24 h of treatment. Cyclin A mRNA was analyzed after 24 h for GR responses or 48 h for PR responses.

[2] = tested on: human breast tissue carrying BRCA1 mutations, xenografts; assay: Ki67 mitotic index in BRCA1 mutated human breast tissue xenografted in nude mice; format: in vivo; conditions: E2+P+UPA vs E2+P, lobular and ductal cells, 28 days
Experimental: Mitotic index was calculated using the Ki67 antibody, and was determined for each breast tissue grafted into mice. Immunohistochemical analyses were performed using the BOND-MAX workstation (Leica, Nanterre, France). Paraffin sections of breast tissue xenografts were de-waxed and rehydrated before antigen retrieval using citrate retrieval solution (pH 6.0) for Ki67 antibody or EDTA retrieval solution (pH 9.0) for PR and ERalpha antibodies, for 30 min. Sections were then incubated with Ki67 at 1:100 (Novocastra, NCL5 L-Ki67-MM1), PR at 1:80 (Biogenex, MU-328-UC) or ER at 1:300 (Novocastra, NCL-L6 ER-6F11) monoclonal antibodies. For signal detection, the Kit Bond Polymer Refire Detection was used. Reagents were purchased from Menarini-Diagnostic (Rungis, France). A negative control (omitting the first antibody) was included in each set. For each marker, determination of the ratio of positive cells was performed on a total of 1 000 lobular and 1 000 ductal luminal cells in the 4 breast tissue fragments grafted into each mouse. For each experiment, the final percentages for each treatment were the mean of percentages obtained in the four mice per group.
Mutated breast tissue samples were obtained from 5 women (36-57 years old) carrying mutations for BRCA1.
Xenografts were performed as described above (Example 2). […]

[3] = tested on: HBE cells; assay: Tritiated thymidine incorporation (proliferation) in HBE cells; format: cell-based, human; conditions: 96 h
Experimental: as §1
After 24 h of hormonal treatment, cells were incubated with [methyl-1 3H] thymidine (Perkin Elmer, Courtaboeuf, France) for 48 h or 20 h for KBE or cancer cells, respectively at 37° C. After incubation cells were washed twice with PBS 1× and once with 5% trichloroacetic acid (TCA). Cells were incubated in 5% TCA for 15 min at 4° C. and lysed in NaOH 0.1 N for 30 min at 37° C. The total cell lysate was added to 5 ml of Ecolite scintillation liquid (MP biomedical, Illkirch, France) and radioactivity was counted with a β-counter HIDEX 300SL (ScienceTec, Courtaboeuf, France).

[4] = tested on: MCF-7 cells; assay: Apoptosis, sub-G1 quantification by flow cytometry in MCF-7 cells; format: cell-based, human; conditions: 48 h
Experimental: as §1
After 96 h or 48 h of hormonal treatment, respectively, for HBE or MCF-7 and T-47D cells, cells were washed in PBS, matrix dissociated with accutase enzyme (PAA laboratory, Les Mureaux, France), and centrifuged 5 minutes at 1350 rpm. Cells were fixed and frozen at −20° C. in 70% ethanol. Before analysis, cells were washed in PBS and stained with 10 μg/ml propidium iodide in PBS (containing 0.835 U/ml RNase A) (Sigma, St Quentin Fallavier, France). For each sample at least 10 000 cells were counted in a BD LSR II flow cytometer (BD Biosciences, Le Pont de Claix, France). After gating out doublets and debris, cycle distribution was analyzed using the ModFit LT software (Verity Software House, USA).

[5] = tested on: HBCx-34 tumors; assay: HBCx-34 human mammary ductal carcinoma xenograft tumor growth in nude mice; format: in vivo; conditions: UPA 130 mg/kg p.o., 42 days
Source text: The xenograft model used in this study was HBCx-34. HBCx-34 is a mammary ductal carcinoma with wild type P53, no HER2 overexpression and PR and ERα overexpression. […] HBCx-34 has got no cachectic property.
HBCx-34 tumors (P14.0.0/2) were transplanted subcutaneously onto 5-10 mice (donor mice, passage (n-1), female athymic nude mice (Hsd:Athymic Nude-Fox1nu), 6- to 9-week-old, Harlan Laboratories (Gannat, France)). When these tumors reached 1000 to 2000 mm3 (between 60 to 78 days), donor mice were sacrificed by cervical dislocation, tumors were aseptically excised and dissected. After removing necrotic areas, tumors were cut into fragments measuring approximately 20 mm3 and transferred for 10 min maximum in sterile DMEM/F12 culture medium, without any additional components, before grafting.
Healthy mice aged 6 to 9 weeks and weighing at least 20 g were included in the study. Mice were anaesthetized with ketamine/xylazine, and then skin was aseptized with a chlorhexidine solution, incised at the level of the interscapular region, and a 20 mm3 tumor fragment was placed in the subcutaneous tissue. Skin was closed with clips.
Mice were allocated to different groups according to their tumor volume to give homogenous mean and median tumor volume in each treatment arms. Ten mice/group, with HBCx-34 tumors between 75 and 144 mm^3, were randomized according to their tumor volume into experimental groups, and treatments (UPA 130 mg/kg, p.o. or control vehicle) were initiated 33 days post implantation of the tumor for a total duration of 42 days.
Tumor volume was evaluated biweekly during all the experimental period. Tumors were collected at the end of treatment, weight and processed for analysis.

[6] = tested on: PR target genes (FASN, cyclin A, BCL2, ALPL); assay: qRT-PCR mRNA expression of PR target genes in T-47D cells; format: cell-based, human
Experimental: as §1, §2, §3

[7] = P and/or UPA 100 nM, E2 10 nM, 24 h

CC(=O)O[C@]1(C(C)=O)CCC2C3CCC4=CC(=O)CCC4=C3[C@@H](c3ccc(N(C)C)cc3)C[C@@]21C (stereo partly drawn) [UPA, 17[…]-acetoxy-11[…]-[4-N,N-dimethylamino-phenyl)-19-norpregna-4,9-diene-3,20-dione]
BCL2 mRNA expression (PR response) [1, 7]: did not reverse BCL2 mRNA down-regulation induced by P | FASN mRNA expression [1, 7]: able to prevent P induction of FASN mRNA expression | cyclin A mRNA expression (PR response) ([1]; P and/or UPA 100 nM, E2 10 nM, 48 h): reversed P-induced cyclin A mRNA down-regulation | PR agonist activity on PR target genes ([1]; UPA 100 nM alone): did not display any PR agonist activity | proliferation (Ki67 mitotic index) stimulated by E2+P [2]: exhibited antiproliferative activity | cell proliferation ([3H] thymidine incorporation), compound alone ([3]; 100 nM): had no effect on proliferation | effect of UPA on DEX-mediated proliferation change ([3]; DEX 100 nM + UPA 100 nM): inhibited the strong proliferative activity induced by DEX | effect of UPA on P-mediated proliferation change ([3]; P 100 nM + UPA 100 nM): did not inhibit the anti-proliferative effect induced by P | cell apoptosis (sub-G1 percentage), compound alone ([4]; 100 nM): had no apoptotic or survival properties by itself | effect of UPA on DEX-mediated apoptosis ([4]; DEX 100 nM + UPA 100 nM): totally inhibited by UPA | ratio of TV in treated vs. control group (T/C) [5]: 53% | increase in mean tumor volume (TV) at the end of treatment ([5]; control 4.63-fold): 2.17 fold | mean TV at sacrifice ([5]; control 625.0±108.6 mm^3): 332.0±61.0 mm^3 | ALPL mRNA expression ([6]; P and/or UPA 100 nM, 6 h): totally inhibited the strong P mediated induction of ALPL transcript | FASN mRNA expression ([6]; P and/or UPA 100 nM, 24 h): able to prevent P induction of FASN mRNA expression | BCL2 mRNA expression (PR response) ([6]; P and/or UPA 100 nM, 24 h, p<0.01): antagonized the P inhibitory effect on this transcript | cyclin A mRNA expression (PR response) ([6]; P and/or UPA 100 nM, 48 h): reversed P-induced cyclin A mRNA down-regulation | PR agonist activity on PR target genes ([6]; UPA 100 nM alone): did not display any PR agonist activity
